According to PMC11156899, “High-throughput screening unveils nitazoxanide as a potent PRRSV inhibitor by targeting NMRAL1” (Nature Communications, 2024):

Molecular target: NMRAL1 (Chlorocebus sabaeus, UniProt A0A0D9R9W0)
Assay: NMRAL1 dimerization (western blot, in cells and purified protein)
Assay type: biochemical
Conditions: in cells and with purified NMRAL1 protein
Description: In these proteins, we separately purified the proteins of NSP1α, NSP12, and NMRAL1. […] We speculate that NMRAL1 may be the primary target of NTZ action. […] Previous studies have shown NMRAL1 inhibits retinoic acid-inducible gene I (RIG-I) mediated antiviral responses. NTZ has been reported to activate the RIG-I pathway and induce an increase in IFN-β[25], which our findings corroborate (Fig. 6e–j). […] Differential Scanning Fluorimetry (DSF) confirmed NTZ binding to NMRAL1 (Fig. 6n). […] Molecular dynamics (MD) simulations were conducted for a more accurate understanding of TIZ’s role within the NMRAL1 dimer. Fluctuations or reductions in root-mean-square deviation (RMSD), Rg, and hydrogen bond count data after 80 ns indicated significant changes in the NMRAL1 system (Supplementary Fig. 12 a, b, d). […] TIZ primarily interacted with A chain’s LYS41, LYS42, LYS45, and B chain’s LYS92, LYS89, LYS95, GLN93, LEU96, LYS118, and ARG103, with B chain’s LYS92 and LYS89 and A chain’s LYS41 being the hotspots with binding energies greater than −1 kcal/mol (Supplementary Fig. 13). […]
For Western blot analysis, protein samples were heated at 95 °C for 8 min and then cooled to room temperature. […] The protein signals were detected using a chemiluminescent substrate (34577, Thermo) and visualized using the Gel Doc XR+ molecular imager (Bio-Rad).

Sequence of NMRAL1 (A0A0D9R9W0 entry or part of it): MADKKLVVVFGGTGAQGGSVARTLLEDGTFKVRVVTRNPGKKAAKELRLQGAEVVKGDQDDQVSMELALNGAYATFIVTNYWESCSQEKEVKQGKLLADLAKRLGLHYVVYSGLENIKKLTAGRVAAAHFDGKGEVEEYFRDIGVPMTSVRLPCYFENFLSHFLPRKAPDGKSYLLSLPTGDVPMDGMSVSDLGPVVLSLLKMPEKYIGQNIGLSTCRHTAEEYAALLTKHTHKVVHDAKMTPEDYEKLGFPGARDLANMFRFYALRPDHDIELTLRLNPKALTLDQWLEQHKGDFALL

With `CC(=O)Oc1ccccc1C(=O)Nc1ncc([N+](=O)[O-])s1` [Nitazoxanide] the NMRAL1 dimer formation was “increased NMRAL1 dimer formation”.
